Laboratory results as given in PubChem BioAssay (NCI).
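Five compound concentrations were applied to cells in 96-well plates for 48 hours; endpoints were derived by simple linear interpolation of the resulting dose-response curve. TGI: total growth inhibition.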

Key:
Experiment in all cases: NCI-60 cell line screen, 48 h
[1] = system: SF-295 CNS
[2] = system: SK-MEL-2 melanoma
[3] = system: A498 renal
[4] = system: A549 NSCLC
[5] = system: M14 melanoma
[6] = system: SF-539 CNS
[7] = system: CAKI-1 renal
[8] = system: LOX IMVI melanoma
[9] = system: MCF7 breast
[10] = system: HOP-62 NSCLC
[11] = system: TK-10 renal
[12] = system: HOP-92 NSCLC
[13] = system: NCI/ADR-RES ovarian
[14] = system: KM12 colon
[15] = system: OVCAR-4 ovarian
[16] = system: T-47D breast
[17] = system: IGROV1 ovarian
[18] = system: SK-MEL-5 melanoma
[19] = system: ACHN renal
[20] = system: UO-31 renal
[21] = system: SNB-75 CNS
[22] = system: SK-OV-3 ovarian
[23] = system: MDA-MB-231 breast
[24] = system: NCI-H460 lung
[25] = system: BT-549 breast
[26] = system: SNB-19 CNS
[27] = system: MDA-MB-435
[28] = system: OVCAR-3 ovarian
[29] = system: EKVX NSCLC
[30] = system: COLO 205 colon
[31] = system: UACC-257 melanoma
[32] = system: HCT-15 colon
[33] = system: MALME-3M melanoma
[34] = system: MOLT-4 leukemia
[35] = system: 786-0 renal
[36] = system: SF-268 CNS
[37] = system: NCI-H23 lung
[38] = system: U251 CNS
[39] = system: PC-3 prostate
[40] = system: NCI-H226 lung
[41] = system: RPMI-8226 leukemia
[42] = system: SW-620 colon
[43] = system: SN12C renal
[44] = system: HCC-2998 colon
[45] = system: NCI-H522 lung
[46] = system: SK-MEL-28 melanoma
[47] = system: OVCAR-5 ovarian
[48] = system: RXF 393 renal
[49] = system: K-562 leukemia
[50] = system: MDA-N
[51] = system: HCT-116 colon
[52] = system: HL-60(TB) leukemia
[53] = system: DU-145 prostate
[54] = system: HT29 colon
[55] = system: CCRF-CEM leukemia
[56] = system: UACC-62 melanoma
[57] = system: OVCAR-8 ovarian
[58] = system: SR leukemia

Measured: TGI

C[C@@H]1OC(=O)/C(=C\N(C)C)[C@H]2CC(=O)N(CCc3cn(S(=O)(=O)C(F)(F)F)c4ccccc34)C[C@H]12
not listed: [52] | [53] | [54] | [55] | [56] | [57] | [58]
> 100 µM: all other assays above

O=C1OC2C(O)C(=O)OC2C1O (stereo unspecified)
not listed: [11] | [25] | [41]
> 100 µM: all other assays above
